Laboratory results from PubChem BioAssay AID248 (DTP/NCI, 2004).
Several values for one entry are separate records, joined by “and”; a condition that tells them apart may be missing. Equal values may be shown once. Inconclusive results and toxic doses are left out. Rule as the data show it: active = T/C of 150% or more; inactive = T/C below 125%.

Tested on: L1210 leukemia ip in BDF1 mice, survival T/C
Assay: NCI In Vivo Anticancer Drug Screen. Data for tumor model L1210 Leukemia (intraperitoneal) in B6D2F1 (BDF1) mice
Conditions: endpoint: mean survival time, higher = longer survival
Outline: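 Mice bearing the transplanted tumor received compound or vehicle. Survival of the treated group was divided by that of the vehicle-treated control group to give the ratio.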

[1] = dose: 50.0 mg/kg/injection, schedule: Q04DX003 (ip), vehicle: saline
[2] = dose: 100.0 mg/kg/injection, schedule: Q04DX003 (ip), vehicle: saline
[3] = dose: 200.0 mg/kg/injection, schedule: Q04DX003 (ip), vehicle: saline
[4] = dose: 25.0 mg/kg/injection, schedule: Q01DX009 (ip), vehicle: saline
[5] = dose: 100.0 mg/kg/injection, schedule: Q01DX009 (ip), vehicle: saline
[6] = dose: 200.0 mg/kg/injection, schedule: Q01DX009 (ip), vehicle: saline
[7] = dose: 100.0 mg/kg/injection, schedule: Q04DX003 (ip), vehicle: Klucel (hydroxypropylcellulose) (HPC)
[8] = dose: 200.0 mg/kg/injection, schedule: Q04DX003 (ip), vehicle: Klucel (hydroxypropylcellulose) (HPC)
[9] = dose: 400.0 mg/kg/injection, schedule: Q04DX003 (ip), vehicle: Klucel (hydroxypropylcellulose) (HPC)
[10] = dose: 200.0 mg/kg/injection, schedule: Q01DX001 (ip), vehicle: saline
[11] = dose: 50.0 mg/kg/injection, schedule: Q01DX001 (ip), vehicle: carboxymethylcellulose (CMC)
[12] = dose: 400.0 mg/kg/injection, schedule: Q01DX001 (ip), vehicle: carboxymethylcellulose (CMC)
[13] = dose: 300.0 mg/kg/injection, schedule: Q01DX001 (ip), vehicle: saline
[14] = dose: 100.0 mg/kg/injection, schedule: Q04DX003 (ip), vehicle: saline with Tween-80
[15] = dose: 200.0 mg/kg/injection, schedule: Q04DX003 (ip), vehicle: saline with Tween-80
[16] = dose: 400.0 mg/kg/injection, schedule: Q04DX003 (ip), vehicle: saline with Tween-80

Measured: T/C

CC(=O)OCC(=O)[C@@]1(O)[C@H](C)C[C@H]2[C@@H]3C=C(C)C4=Cc5c(cnn5-c5ccc(F)cc5)C[C@]4(C)[C@H]3[C@@H](O)C[C@@]21C
inactive: dose: 0.62 mg/kg/injection, schedule: Q01DX015 (sc), vehicle: steriod suspending solution 120 % of control | dose: 1.25 mg/kg/injection, schedule: Q01DX015 (sc), vehicle: steriod suspending solution 117 % of control | dose: 2.5 mg/kg/injection, schedule: Q01DX015 (sc), vehicle: steriod suspending solution 102 % of control | dose: 5.0 mg/kg/injection, schedule: Q01DX015 (sc), vehicle: steriod suspending solution 117 % of control and 123 % of control | dose: 6.25 mg/kg/injection, schedule: Q01DX009 (sc), vehicle: steriod suspending solution 100 % of control | dose: 10.0 mg/kg/injection, schedule: Q01DX015 (sc), vehicle: steriod suspending solution 111 % of control | dose: 20.0 mg/kg/injection, schedule: Q01DX015 (sc), vehicle: steriod suspending solution 103 % of control | dose: 40.0 mg/kg/injection, schedule: Q01DX015 (sc), vehicle: steriod suspending solution 101 % of control | dose: 50.0 mg/kg/injection, schedule: Q04DX003 (sc), vehicle: steriod suspending solution 110 % of control | dose: 100.0 mg/kg/injection, schedule: Q01DX001 (ip), vehicle: steriod suspending solution 98 % of control | dose: 100.0 mg/kg/injection, schedule: Q04DX003 (sc), vehicle: steriod suspending solution 108 % of control | dose: 160.0 mg/kg/injection, schedule: Q01DX015 (sc), vehicle: steriod suspending solution 91 % of control | dose: 200.0 mg/kg/injection, schedule: Q01DX001 (ip), vehicle: steriod suspending solution 91 % of control | dose: 200.0 mg/kg/injection, schedule: Q04DX003 (sc), vehicle: steriod suspending solution 103 % of control

O=CN=C(CS(=O)(=O)O)c1ccccc1
inactive: [1] 103 % of control | [2] 108 % of control | [3] 100 % of control | dose: 400.0 mg/kg/injection, schedule: Q04DX003 (ip), vehicle: saline 102 % of control

C=C=CC(C=O)(CC)CCCC (centres undefined)
inactive: dose: 50.0 mg/kg/injection, schedule: Q01DX009 (ip), vehicle: saline with Tween-80 91 % of control | dose: 100.0 mg/kg/injection, schedule: Q01DX009 (ip), vehicle: saline with Tween-80 94 % of control | dose: 200.0 mg/kg/injection, schedule: Q01DX009 (ip), vehicle: saline with Tween-80 98 % of control

C=CCN(CC=C)P(=O)(OCC)OCC
inactive: dose: 12.5 mg/kg/injection, schedule: Q04DX003 (ip), vehicle: saline 105 % of control | [4] 97 % of control and 100 % of control | dose: 25.0 mg/kg/injection, schedule: Q04DX003 (ip), vehicle: saline 112 % of control | dose: 50.0 mg/kg/injection, schedule: Q01DX009 (ip), vehicle: saline 98 % of control and 105 % of control | [1] 108 % of control | [5] 104 % of control and 91 % of control | [2] 105 % of control | [6] 97 % of control and 92 % of control | [3] 94 % of control

COc1ccc(/C(N=Nc2ccccc2)=N/N=C(N)N)cc1
inactive: dose: 20.0 mg/kg/injection, schedule: Q01DX001 (ip), vehicle: steriod suspending solution 105 % of control | dose: 40.0 mg/kg/injection, schedule: Q01DX001 (ip), vehicle: steriod suspending solution 94 % of control | dose: 80.0 mg/kg/injection, schedule: Q01DX001 (ip), vehicle: steriod suspending solution 96 % of control

COC(=O)c1c2c(nc3ccccc13)-c1ccccc1C(C)(C)C2OC (centres undefined)
inactive: [7] 113 % of control | [8] 102 % of control | [9] 101 % of control

CC1CC(C)(C)[N+]2=C(CCCC2)O1 (centres undefined)
inactive: dose: 6.25 mg/kg/injection, schedule: Q01DX009 (ip), vehicle: saline 96 % of control | dose: 12.5 mg/kg/injection, schedule: Q01DX009 (ip), vehicle: saline 94 % of control | [4] 103 % of control

O=C(COc1cc(Cl)c(Cl)cc1Cl)Nc1ccc([N+](=O)[O-])cc1Cl
inactive: dose: 100.0 mg/kg/injection, schedule: Q04DX002 (ip), vehicle: saline with Tween-80 102 % of control | dose: 200.0 mg/kg/injection, schedule: Q04DX002 (ip), vehicle: saline with Tween-80 109 % of control | dose: 400.0 mg/kg/injection, schedule: Q04DX002 (ip), vehicle: saline with Tween-80 98 % of control

Cc1ccc2[nH]c(O)c(N=Nc3ccccc3[N+](=O)[O-])c2c1
inactive: dose: 100.0 mg/kg/injection, schedule: Q01DX001 (ip), vehicle: saline 90 % of control | [10] 93 % of control

CC1(OC(=O)c2ccc([N+](=O)[O-])cc2)CC2CC1c1ccccc12 (centres undefined)
inactive: [11] 90 % of control | dose: 200.0 mg/kg/injection, schedule: Q01DX001 (ip), vehicle: carboxymethylcellulose (CMC) 111 % of control | [12] 90 % of control

c1ccc(C2c3cc4ccccc4cc3Oc3ccc4ccccc4c32)cc1 (centres undefined)
inactive: dose: 75.0 mg/kg/injection, schedule: Q04DX003 (ip), vehicle: other 94 % of control | dose: 300.0 mg/kg/injection, schedule: Q04DX003 (ip), vehicle: other 103 % of control

Nc1cc(Cl)ccc1NCCO
inactive: dose: 33.0 mg/kg/injection, schedule: Q01DX009 (ip), vehicle: saline 101 % of control | dose: 66.0 mg/kg/injection, schedule: Q01DX009 (ip), vehicle: saline 86 % of control | dose: 132.0 mg/kg/injection, schedule: Q01DX001 (ip), vehicle: saline 97 % of control and 111 % of control | dose: 132.0 mg/kg/injection, schedule: Q04DX003 (ip), vehicle: acetone 97 % of control | [10] 97 % of control and 105 % of control | [13] 100 % of control and 105 % of control

O=C(COCC(=O)N/N=C/C=C/c1ccccc1)N/N=C/C=C/c1ccccc1
inactive: dose: 100.0 mg/kg/injection, schedule: Q01DX009 (ip), vehicle: Klucel (hydroxypropylcellulose) (HPC) 96 % of control | dose: 200.0 mg/kg/injection, schedule: Q01DX009 (ip), vehicle: Klucel (hydroxypropylcellulose) (HPC) 104 % of control | dose: 400.0 mg/kg/injection, schedule: Q01DX009 (ip), vehicle: Klucel (hydroxypropylcellulose) (HPC) 95 % of control

CCOC(=O)C1SCSCC1=O (centres undefined)
inactive: [14] 102 % of control | [15] 98 % of control | [16] 98 % of control

O=[N+]([O-])c1ccc(N/N=C(/CCCCl)c2ccccc2)c([N+](=O)[O-])c1
inactive: [14] 96 % of control | [15] 95 % of control | [16] 91 % of control

CCOc1ccc(NC2=C(OC)C(=O)C(Nc3ccc(OCC)cc3)=C(OC)C2=O)cc1
inactive: [11] 99 % of control | [12] 93 % of control

CC(=O)Nc1nc(NC(C)=O)c2nc(CCN(C)c3ccc(C(=O)O)cc3)cnc2n1
inactive: dose: 75.0 mg/kg/injection, schedule: Q01DX001 (ip), vehicle: saline 106 % of control | [7] 95 % of control | dose: 150.0 mg/kg/injection, schedule: Q01DX001 (ip), vehicle: saline 101 % of control | [8] 95 % of control | [13] 101 % of control | [9] 100 % of control

Nc1ccc(Cl)cc1Br
inactive: dose: 50.0 mg/kg/injection, schedule: Q01DX009 (ip), vehicle: acetone 95 % of control | dose: 100.0 mg/kg/injection, schedule: Q01DX009 (ip), vehicle: acetone 92 % of control | dose: 100.0 mg/kg/injection, schedule: Q04DX003 (ip), vehicle: acetone 96 % of control | dose: 200.0 mg/kg/injection, schedule: Q01DX009 (ip), vehicle: acetone 90 % of control | dose: 200.0 mg/kg/injection, schedule: Q04DX003 (ip), vehicle: acetone 100 % of control | dose: 400.0 mg/kg/injection, schedule: Q04DX003 (ip), vehicle: acetone 96 % of control

COc1cc2c(cc1OC)C(=O)C(Br)N(S(=O)(=O)c1ccc(C)cc1)CC2 (centres undefined)
inactive: [5] 96 % of control | [6] 97 % of control | dose: 400.0 mg/kg/injection, schedule: Q01DX009 (ip), vehicle: saline 93 % of control

Cc1c2c(nn1Cc1ccccc1)C(=O)C=C(Nc1ccccc1)C2=O
inactive: dose: 50.0 mg/kg/injection, schedule: Q01DX001 (ip), vehicle: Klucel (hydroxypropylcellulose) (HPC) 99 % of control | dose: 100.0 mg/kg/injection, schedule: Q01DX001 (ip), vehicle: Klucel (hydroxypropylcellulose) (HPC) 99 % of control and 104 % of control | dose: 200.0 mg/kg/injection, schedule: Q01DX001 (ip), vehicle: Klucel (hydroxypropylcellulose) (HPC) 97 % of control and 111 % of control
